Assay results published in patent publication US20230365592A1 (Agios Pharmaceuticals, Inc., priority 2022, published 2023).

These compounds were tested against T1, human PAH with the R408W mutation (Homo sapiens, UniProt P00439, R408W) (assay: Cell Based Phenylalanine Flux Assay). Details: A375 cells expressing R408W PAH; 24 hrs with compound, then 20 µM sepiapterin and 800 µM 13C9,15N-Phenylalanine for 4 hours; 13C-Tyrosine by LC-MS; average where tested multiple times; read-out: AC50.
T1 construct: expressed in transfected cells
T1 sequence (P00439 1-452 R408W): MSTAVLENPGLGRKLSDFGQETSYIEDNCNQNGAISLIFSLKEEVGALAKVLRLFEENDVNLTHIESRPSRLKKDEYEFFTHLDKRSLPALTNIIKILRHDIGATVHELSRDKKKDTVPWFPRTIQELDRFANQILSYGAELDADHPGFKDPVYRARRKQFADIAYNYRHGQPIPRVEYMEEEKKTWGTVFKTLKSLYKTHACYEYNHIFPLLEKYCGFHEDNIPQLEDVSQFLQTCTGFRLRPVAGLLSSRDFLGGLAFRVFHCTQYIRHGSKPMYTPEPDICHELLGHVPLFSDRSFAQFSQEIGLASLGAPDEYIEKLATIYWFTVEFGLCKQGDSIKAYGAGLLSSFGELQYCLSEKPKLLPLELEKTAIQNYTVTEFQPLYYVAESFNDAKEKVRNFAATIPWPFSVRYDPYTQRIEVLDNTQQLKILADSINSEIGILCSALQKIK
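Further: after compound treatment, cells received sepiapterin plus isotope-labelled Phenylalanine for 4 hours, then labelled Tyrosine in the medium was quantified, 10-point 2-fold dilution series run in duplicate.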

Compound | AC50 [µM]
Cn1ccc(-c2ncc(C(=O)N3CCc4[nH]cnc4C3c3cc4ccccn4n3)o2)n1 (stereo not shown) | > 5
Cc1c(-c2ncc(C(=O)N3CCc4[nH]cnc4C3c3cc4ccccn4n3)o2)cnn1C (stereo not shown) | > 5
CC(C)(F)c1nnc(C(=O)N2CCc3[nH]cnc3C2c2cc3ccccn3n2)o1 (stereo not shown) [listing 1 of 2 here] | 1 to 5
Cc1cccn2nc(C3c4nc[nH]c4CCN3C(=O)c3nnc(-c4cn[nH]c4)o3)cc12 (stereo not shown) [listing 1 of 2 here] | > 5
O=C(c1cnc(-c2ncccn2)o1)N1CCc2[nH]cnc2C1c1cc2c(F)cccn2n1 (stereo not shown) [listing 1 of 2 here] | > 5
Cc1cccc2cc(C3c4nc[nH]c4CCN3c3nnc(-c4cnccn4)o3)nn12 (stereo not shown) [listing 1 of 2 here] | > 5
O=C(c1nnc(-c2ccc(C(F)(F)F)cn2)o1)N1CCc2[nH]cnc2C1c1cc2ccccn2n1 (stereo not shown) | > 5
Cc1cccc2cc(C3c4nc[nH]c4CCN3c3nnc(C4CCC4)o3)nn12 (stereo not shown) | > 5
c1cncc(-c2nnc(N3CCc4[nH]cnc4C3c3cc4ccccn4n3)o2)c1 (stereo not shown) [listing 1 of 2 here] | > 5
c1cc(C2CC2)c2cc(C3c4nc[nH]c4CCN3c3nnc(-c4ccncn4)o3)nn2c1 (stereo not shown) | > 5
Cc1cccn2nc(C3c4nc[nH]c4CCN3c3nnc(-c4ccncn4)o3)cc12 (stereo not shown) [listing 1 of 2 here] | > 5
c1ccn2nc(C3c4nc[nH]c4CCN3c3nnc(-c4ccncn4)o3)cc2c1 (stereo not shown) [listing 1 of 2 here] | > 5
Cn1cc(-c2nc(C3CC3)c(C(=O)N3CCc4[nH]cnc4C3c3cc4ccccn4n3)o2)cn1 (stereo not shown) [listing 1 of 2 here] | > 5
Cn1cc(-c2ncc(C(=O)N3CCc4[nH]cnc4C3c3cc4c(F)cccn4n3)o2)cn1 (stereo not shown) [listing 1 of 2 here] | > 5
Cn1ncc(C(=O)N2CCc3[nH]cnc3C2c2cc3ccccn3n2)c1C(F)F (stereo not shown) | 1 to 5
CN(C)CCc1ccc2c(C(=O)N3CCc4[nH]cnc4C3c3cc4cccc(C(F)(F)F)n4n3)cnn2c1 (stereo not shown) [listing 1 of 2 here] | > 5
Cn1ncnc1C(=O)N1CCc2[nH]cnc2C1c1cc2ccccn2n1 (stereo not shown) | 1 to 5
Cn1cc(-c2ncc(C(=O)N3CCc4[nH]cnc4C3c3cc4ccccn4n3)o2)cn1 (stereo not shown) | 1 to 5
CC1(c2nnc(N3CCc4[nH]cnc4C3c3cc4c(C(F)(F)F)cccn4n3)o2)CC1 (stereo not shown) | 1 to 5
O=C(c1nnc(-c2cn[nH]c2)o1)N1CCc2[nH]cnc2C1c1cc2ccccn2n1 (stereo not shown) | 1 to 5
CC(C)(F)c1nnc(N2CCc3[nH]cnc3C2c2cc3c(C(F)(F)F)cccn3n2)o1 (stereo not shown) | > 5
Cc1cccn2nc(C3c4nc[nH]c4CCN3c3nnc(C(C)(C)F)o3)cc12 (stereo not shown) | > 5
CC(C)(F)c1nnc(C(=O)N2CCc3[nH]cnc3C2c2cc3ccccn3n2)o1 (stereo not shown) [listing 2 of 2 here] | 1 to 5

Compound | AC50 [µM]
CC(C)(F)c1nnc(N2CCc3[nH]cnc3C2c2cc3ccccn3n2)o1 (stereo not shown) | > 5
O=C(C1CN(c2ccccn2)C1)N1CCc2[nH]cnc2C1c1cc2ccccn2n1 (stereo not shown) | 1 to 5
FC(F)c1cccn2nc(C3c4nc[nH]c4CCN3c3nnc(C4CC(F)(F)C4)o3)cc12 (stereo not shown) | 1 to 5
Fc1cccn2nc(C3c4nc[nH]c4CCN3c3nnc(C4CC(F)(F)C4)o3)cc12 (stereo not shown) | 1 to 5
FC1(F)CC(c2nnc(N3CCc4[nH]cnc4C3c3cc4c(C(F)(F)F)cccn4n3)o2)C1 (stereo not shown) | 1 to 5
Cc1nnc(N2CCc3[nH]cnc3C2c2cc3c(OC(F)F)cccn3n2)o1 (stereo not shown) | 1 to 5
CC(C)(F)c1nnc(N2CCc3[nH]cnc3C2c2cc3c(C(F)F)cccn3n2)o1 (stereo not shown) | > 5
CC1(c2nnc(N3CCc4[nH]cnc4C3c3cc4c(C(F)F)cccn4n3)o2)CC1 (stereo not shown) | 1 to 5
Cn1cc(-c2nnc(N3CCc4[nH]cnc4C3c3cc4c(C(F)F)cccn4n3)o2)cn1 (stereo not shown) | > 5
O=C(c1nc2ccccc2s1)N1CCc2[nH]cnc2C1c1cc2c(C(F)(F)F)cccn2n1 (stereo not shown) | 1 to 5
FC1(F)CC(c2nnc(N3CCc4[nH]cnc4C3c3cc4c(C5CC5)cccn4n3)o2)C1 (stereo not shown) | 1 to 5
O=C(c1ncco1)N1CCc2[nH]cnc2C1c1cc2c(F)cccn2n1 (stereo not shown) | 1 to 5
Cc1nnc(C(=O)N2CCc3[nH]cnc3C2c2cc3c(F)cccn3n2)s1 (stereo not shown) | 1 to 5
Cc1cccn2nc(C3c4nc[nH]c4CCN3C(=O)c3nnc(-c4cn[nH]c4)o3)cc12 (stereo not shown) [listing 2 of 2 here] | 1 to 5
Nc1cnc(N2CCc3[nH]cnc3C2c2cc3cccc(C(F)(F)F)n3n2)nc1 (stereo not shown) | > 5
Nc1cnc(N2CCc3[nH]cnc3C2c2cc3cccc(Cl)n3n2)nc1 (stereo not shown) | 1 to 5
Clc1cccc2cc(C3c4nc[nH]c4CCN3c3nnc(C4CCC4)o3)nn12 (stereo not shown) | 1 to 5
Fc1cccc2cc(C3c4nc[nH]c4CCN3c3nnc(C(F)(F)F)o3)nn12 (stereo not shown) | 1 to 5
Nc1cnc(N2CCc3[nH]cnc3C2c2cc3ccccn3n2)nc1 (stereo not shown) | > 5
O=C(c1nccs1)N1CCc2[nH]cnc2C1c1cc2ccccn2n1 (stereo not shown) | 1 to 5
O=C(c1ncco1)N1CCc2[nH]cnc2C1c1cc2ccccn2n1 (stereo not shown) | 1 to 5
Clc1cccn2nc(C3c4nc[nH]c4CCN3c3nnc(-c4ncccn4)o3)cc12 (stereo not shown) | 1 to 5
FC(F)c1cccn2nc(C3c4nc[nH]c4CCN3c3nnc(-c4ncccn4)o3)cc12 (stereo not shown) | 1 to 5

Compound | AC50 [µM]
FC(F)c1cccn2nc(C3c4nc[nH]c4CCN3c3nnc(-c4cnccn4)o3)cc12 (stereo not shown) | 1 to 5
O=C(c1cnc(-c2ncccn2)o1)N1CCc2[nH]cnc2C1c1cc2c(C(F)F)cccn2n1 (stereo not shown) | > 5
O=C(c1cnc(-c2ncccn2)o1)N1CCc2[nH]cnc2C1c1cc2c(C(F)(F)F)cccn2n1 (stereo not shown) | 1 to 5
c1cc(C2CC2)c2cc(C3c4nc[nH]c4CCN3c3nnc(-c4cnccn4)o3)nn2c1 (stereo not shown) | 1 to 5
c1cnc(-c2nnc(N3CCc4[nH]cnc4C3c3cc4c(C5CC5)cccn4n3)o2)nc1 (stereo not shown) | 1 to 5
Fc1cccn2nc(C3c4nc[nH]c4CCN3c3nnc(-c4ncccn4)o3)cc12 (stereo not shown) | 1 to 5
O=C(c1cnc(-c2ncccn2)o1)N1CCc2[nH]cnc2C1c1cc2c(F)cccn2n1 (stereo not shown) [listing 2 of 2 here] | > 5
Cc1cccn2nc(C3c4nc[nH]c4CCN3C(=O)c3cnc(-c4ncccn4)o3)cc12 (stereo not shown) | 1 to 5
Clc1cccc2cc(C3c4nc[nH]c4CCN3c3nnc(-c4cnccn4)o3)nn12 (stereo not shown) | 1 to 5
Cc1cccc2cc(C3c4nc[nH]c4CCN3c3nnc(-c4cnccn4)o3)nn12 (stereo not shown) [listing 2 of 2 here] | 1 to 5
c1cnc(-c2nnc(N3CCc4[nH]cnc4C3c3cc4ccccn4n3)o2)nc1 (stereo not shown) | 1 to 5
c1ccn2nc(C3c4nc[nH]c4CCN3c3nnc(-c4cnccn4)o3)cc2c1 (stereo not shown) | 1 to 5
COCc1nnc(C(=O)N2CCc3[nH]cnc3C2c2cc3ccccn3n2)o1 (stereo not shown) | 1 to 5
FC(F)c1cccc2cc(C3c4nc[nH]c4CCN3c3nnc(C4CCC4)o3)nn12 (stereo not shown) | 1 to 5
FC(F)(F)c1cccc2cc(C3c4nc[nH]c4CCN3c3nnc(C4CCC4)o3)nn12 (stereo not shown) | 1 to 5
Cc1ncccc1-c1nnc(N2CCc3[nH]cnc3C2c2cc3ccccn3n2)o1 (stereo not shown) | 1 to 5
Cc1nnc(C(=O)N2CCc3[nH]cnc3C2c2cc3ccccn3n2)s1 (stereo not shown) | 1 to 5
CC(C)(C)c1nnc(N2CCc3[nH]cnc3C2c2cc3c(F)cccn3n2)o1 (stereo not shown) | > 5
CC(C)(C)c1nnc(N2CCc3[nH]cnc3C2c2cc3cccc(C(F)F)n3n2)o1 (stereo not shown) | > 5
CC(C)(C)c1nnc(N2CCc3[nH]cnc3C2c2cc3cccc(C(F)(F)F)n3n2)o1 (stereo not shown) | > 5
CC(C)(C)c1nnc(N2CCc3[nH]cnc3C2c2cc3cccc(Cl)n3n2)o1 (stereo not shown) | > 5
Cc1cccc2cc(C3c4nc[nH]c4CCN3c3nnc(C(C)(C)C)o3)nn12 (stereo not shown) | 1 to 5
CC(C)(C)c1nnc(N2CCc3[nH]cnc3C2c2cc3ccccn3n2)o1 (stereo not shown) | 1 to 5

Compound | AC50 [µM]
CN(C)c1ccc2c(C(=O)N3CCc4[nH]cnc4C3c3cc4cccc(C(F)F)n4n3)cnn2c1 (stereo not shown) | 1 to 5
FC(F)c1cccn2nc(C3c4nc[nH]c4CCN3c3nnc(-c4cccnn4)o3)cc12 (stereo not shown) | 1 to 5
FC(F)(F)c1cccn2nc(C3c4nc[nH]c4CCN3c3nnc(-c4cccnn4)o3)cc12 (stereo not shown) | 1 to 5
c1cnnc(-c2nnc(N3CCc4[nH]cnc4C3c3cc4c(C5CC5)cccn4n3)o2)c1 (stereo not shown) | 1 to 5
Cc1cccn2nc(C3c4nc[nH]c4CCN3c3nnc(-c4cccnc4)o3)cc12 (stereo not shown) | 1 to 5
Cc1cccn2nc(C3c4nc[nH]c4CCN3c3nnc(-c4cccnn4)o3)cc12 (stereo not shown) | 1 to 5
c1cnnc(-c2nnc(N3CCc4[nH]cnc4C3c3cc4ccccn4n3)o2)c1 (stereo not shown) | 1 to 5
c1cncc(-c2nnc(N3CCc4[nH]cnc4C3c3cc4ccccn4n3)o2)c1 (stereo not shown) [listing 2 of 2 here] | 1 to 5
Cn1nc(C(F)F)cc1C(=O)N1CCc2[nH]cnc2C1c1cc2ccccn2n1 (stereo not shown) | 1 to 5
Cn1cc(N2CCc3[nH]cnc3C2c2cc3c(F)cccn3n2)cn1 (stereo not shown) | 1 to 5
Cc1cccn2nc(C3c4nc[nH]c4CCN3c3nnc(-c4ccncn4)o3)cc12 (stereo not shown) [listing 2 of 2 here] | 1 to 5
c1ccn2nc(C3c4nc[nH]c4CCN3c3nnc(-c4ccncn4)o3)cc2c1 (stereo not shown) [listing 2 of 2 here] | 1 to 5
Cn1cc(-c2nc(C3CC3)c(C(=O)N3CCc4[nH]cnc4C3c3cc4ccccn4n3)o2)cn1 (stereo not shown) [listing 2 of 2 here] | 1 to 5
O=C(c1ocnc1C1CC1)N1CCc2[nH]cnc2C1c1cc2cccc(C(F)(F)F)n2n1 (stereo not shown) | 1 to 5
Cn1ccc(-c2ncc(C(=O)N3CCc4[nH]cnc4C3c3cc4c(C(F)F)cccn4n3)o2)n1 (stereo not shown) | 1 to 5
Cn1cc(-c2ncc(C(=O)N3CCc4[nH]cnc4C3c3cc4c(C(F)F)cccn4n3)o2)cn1 (stereo not shown) | 1 to 5
Cn1cc(-c2ncc(C(=O)N3CCc4[nH]cnc4C3c3cc4c(F)cccn4n3)o2)cn1 (stereo not shown) [listing 2 of 2 here] | 1 to 5
Cc1cccn2nc(C3c4nc[nH]c4CCN3C(=O)C3CCC3)cc12 (stereo not shown) | > 5
O=C(C1CCC1)N1CCc2[nH]cnc2C1c1cc2ccccn2n1 (stereo not shown) | > 5
Nc1ccc(N2CCc3[nH]cnc3C2c2cc3c(C(F)F)cccn3n2)nc1 (stereo not shown) | 1 to 5
Nc1ccc(N2CCc3[nH]cnc3C2c2cc3ccccn3n2)nc1 (stereo not shown) | > 5
CN(C)CCc1ccc2c(C(=O)N3CCc4[nH]cnc4C3c3cc4cccc(C(F)(F)F)n4n3)cnn2c1 (stereo not shown) [listing 2 of 2 here] | 1 to 5
